Laboratory results: ChEMBL document CHEMBL5390216, “Development of small molecule inhibitors of natural killer group 2D receptor (NKG2D)” (Bioorg Med Chem Lett, 2023)

Assays:
NKGD2-ULBP6 = biological target: T1, NKGD2-ULBP6 (Homo sapiens, UniProt P26718); test: Inhibition of NKG2D (unknown origin)/ULBP6 (unknown origin) protein-protein interaction by cell-based TR-FRET assay
T1 sequence (P26718 whole entry): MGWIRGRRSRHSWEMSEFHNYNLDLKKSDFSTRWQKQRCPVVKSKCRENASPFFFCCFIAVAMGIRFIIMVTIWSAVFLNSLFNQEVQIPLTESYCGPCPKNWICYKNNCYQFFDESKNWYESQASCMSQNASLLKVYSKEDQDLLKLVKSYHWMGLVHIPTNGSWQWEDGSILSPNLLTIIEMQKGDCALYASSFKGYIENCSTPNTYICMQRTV
T1 sequence (Q5VY80 whole entry): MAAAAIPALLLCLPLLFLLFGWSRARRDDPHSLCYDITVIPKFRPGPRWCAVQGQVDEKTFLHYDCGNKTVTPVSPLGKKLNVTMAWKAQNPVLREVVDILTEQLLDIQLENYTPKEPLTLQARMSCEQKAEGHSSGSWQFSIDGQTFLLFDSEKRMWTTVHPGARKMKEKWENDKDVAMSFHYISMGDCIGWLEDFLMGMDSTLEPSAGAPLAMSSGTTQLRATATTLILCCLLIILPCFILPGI

NKGD2-MICA = biological target: T2, NKGD2-MICA (Homo sapiens, UniProt P26718); test: Inhibition of NKG2D (unknown origin)/MICA (unknown origin) protein-protein interaction by cell-based TR-FRET assay
T2 sequence (P26718 whole entry): T1 sequence (P26718 whole entry)
T2 sequence (Q29983 whole entry): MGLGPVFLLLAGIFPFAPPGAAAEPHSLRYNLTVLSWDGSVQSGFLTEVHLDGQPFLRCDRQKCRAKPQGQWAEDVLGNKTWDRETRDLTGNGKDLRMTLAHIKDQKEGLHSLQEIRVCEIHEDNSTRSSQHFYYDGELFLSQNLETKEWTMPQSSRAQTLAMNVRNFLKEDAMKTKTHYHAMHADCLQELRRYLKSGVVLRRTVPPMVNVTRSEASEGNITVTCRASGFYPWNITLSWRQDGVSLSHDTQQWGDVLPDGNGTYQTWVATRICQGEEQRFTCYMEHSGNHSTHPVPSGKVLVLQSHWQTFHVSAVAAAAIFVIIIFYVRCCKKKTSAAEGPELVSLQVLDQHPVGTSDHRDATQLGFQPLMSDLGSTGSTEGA

| Structure (SMILES) | IC50 (NKGD2-ULBP6) | IC50 (NKGD2-MICA) |
| --- | --- | --- |
| CN(C)C(=O)C(NC(=O)c1ccc(-c2ccc(C(F)(F)F)cc2)cc1)c1cccc(C(F)(F)F)c1 (stereo unspecified) | > 20000 nM | > 20000 nM |
| CN(C)C(=O)C(C)(NC(=O)c1ccccc1-c1ccc(C(F)(F)F)cc1)c1cccc(C(F)(F)F)c1 (stereo unspecified) | > 20000 nM | > 20000 nM |
| CN(C)C(=O)[C@@H](NC(=O)c1cnccc1-c1ccc(C(F)(F)F)cc1)c1ccc(F)c(C(F)(F)F)c1 | 400 nM | 200 nM |
| CN(C)C(=O)[C@@H](NC(=O)c1cnccc1-c1ccc(C(F)(F)F)cc1)c1cc(Cl)c(Cl)c(C(F)(F)F)c1 | 200 nM | 100 nM |
| CN(C)C(=O)[C@@H](NC(=O)c1ccccc1-c1ccc(C(F)(F)F)cc1)c1ccc(Cl)c(C(F)(F)F)c1 |  | 500 nM |
| Cc1cc([C@H](NC(=O)c2cnccc2-c2ccc(C(F)(F)F)cc2)C(=O)N(C)C)cc(C(F)(F)F)c1 | 400 nM | 100 nM |
| O=C(N[C@H](C(=O)N1C[C@@H]2[C@H](CO)[C@@H]2C1)c1cccc(C(F)(F)F)c1)c1ccccc1-c1ccc(C(F)(F)F)cc1 | 3100 nM | 1600 nM |
| O=C(NCc1cccc(C(F)(F)F)c1)c1ccccc1-c1ccc(C(F)(F)F)cc1 | > 20000 nM | > 20000 nM |
| CN(C)C(=O)[C@@H](NC(=O)c1ccncc1-c1ccc(C(F)(F)F)cc1)c1cccc(C(F)(F)F)c1 | 4800 nM | 1600 nM |
| CN(C)C(=O)CNC(=O)c1ccccc1-c1ccc(C(F)(F)F)cc1 | > 20000 nM | > 20000 nM |
| CN(C)C(=O)[C@@H](NC(=O)c1ncccc1-c1ccc(C(F)(F)F)cc1)c1cccc(C(F)(F)F)c1 | 3800 nM | 1000 nM |
| O=C(N[C@H](C(=O)N1C[C@@H]2[C@@H](CO)[C@@H]2C1)c1cccc(C(F)(F)F)c1)c1ccccc1-c1ccc(C(F)(F)F)cc1 | 3100 nM | 1100 nM |
| CN(C)C(=O)C(NC(=O)c1ccccc1-c1ccccc1)c1cccc(C(F)(F)F)c1 (stereo unspecified) | > 20000 nM | > 20000 nM |
| CN(C)C(=O)[C@@H](NC(=O)c1nnccc1-c1ccc(C(F)(F)F)cc1)c1cccc(C(F)(F)F)c1 | 1500 nM | 400 nM |
| Cc1n[nH]c(C)c1-c1ccc(-c2ccc(C(F)(F)F)cc2)c(C(=O)N[C@H](C(=O)N(C)C)c2cccc(C(F)(F)F)c2)c1 | 600 nM | 400 nM |
| CN(C)C(=O)[C@@H](NC(=O)c1cnccc1-c1ccc(C(F)(F)F)cc1)c1cc(Cl)cc(C(F)(F)F)c1 | 200 nM | 100 nM |
| CN(C)C(=O)C(c1cccc(C(F)(F)F)c1)N(C)C(=O)c1ccccc1-c1ccc(C(F)(F)F)cc1 (stereo unspecified) | > 20000 nM | > 20000 nM |
| Cc1n[nH]cc1-c1ccc(-c2ccc(C(F)(F)F)cc2)c(C(=O)NC(C(=O)N(C)C)c2cccc(C(F)(F)F)c2)c1 (racemic) | 2800 nM | 900 nM |
| O=C(NC(C(=O)N1CCCC1)c1cccc(C(F)(F)F)c1)c1ccccc1-c1ccc(C(F)(F)F)cc1 (racemic) | 5100 nM | 2500 nM |
| CN(C)C(=O)C(NC(=O)c1cccnc1-c1ccc(C(F)(F)F)cc1)c1cccc(C(F)(F)F)c1 (racemic) | > 20000 nM | > 20000 nM |

More lines, now with the values ahead:

| IC50 (NKGD2-ULBP6) | IC50 (NKGD2-MICA) | Structure (SMILES) |
| --- | --- | --- |
| 8700 nM | 4000 nM | O=C(NC(C(=O)N1CCC[C@@H]1CO)c1cccc(C(F)(F)F)c1)c1ccccc1-c1ccc(C(F)(F)F)cc1 (stereo partly specified) |
| > 20000 nM | > 20000 nM | CN(C)C(=O)C(NC(=O)c1cccc(-c2ccc(C(F)(F)F)cc2)c1)c1cccc(C(F)(F)F)c1 (stereo unspecified) |
| > 20000 nM | > 20000 nM | CN(C)C(=O)C(NC(=O)c1ccccc1)c1cccc(C(F)(F)F)c1 (stereo unspecified) |
| 300 nM | 100 nM | CN(C)C(=O)[C@@H](NC(=O)c1cnccc1-c1ccc(C(F)(F)F)cc1)c1ccc(Cl)c(C(F)(F)F)c1 |
| > 20000 nM | > 20000 nM | CN(C)C(=O)C(NS(=O)(=O)c1ccccc1-c1ccc(C(F)(F)F)cc1)c1cccc(C(F)(F)F)c1 (stereo unspecified) |
| 2400 nM | 900 nM | CN(C)C(=O)[C@@H](NC(=O)c1cc(-c2nnnn2C)ccc1-c1ccc(C(F)(F)F)cc1)c1cccc(C(F)(F)F)c1 |
| 400 nM | 200 nM | CN(C)C(=O)[C@@H](NC(=O)c1cnccc1-c1ccc(C(F)(F)F)cc1)c1ccc(Cl)c(Cl)c1 |
| 1500 nM | 500 nM | CN(C)C(=O)[C@@H](NC(=O)c1cc(-c2nnn[nH]2)ccc1-c1ccc(C(F)(F)F)cc1)c1cccc(C(F)(F)F)c1 |
| 800 nM | 300 nM | Cc1ccc([C@H](NC(=O)c2cnccc2-c2ccc(C(F)(F)F)cc2)C(=O)N(C)C)cc1C(F)(F)F |
| 2700 nM | 1200 nM | CN(C)C(=O)[C@@H](NC(=O)c1ccccc1-c1ccc(C(F)(F)F)cc1)c1cccc(C(F)(F)F)c1 |
| 700 nM | 200 nM | CN(C)C(=O)[C@@H](NC(=O)c1cnccc1-c1ccc(C(F)(F)F)cc1)c1cc(F)cc(C(F)(F)F)c1 |
| 4200 nM | 1800 nM | CN(C)C(=O)[C@@H](NC(=O)c1ccccc1-c1ccc(C(F)(F)F)cc1)c1cccc(C2CC2)c1 |
| 500 nM | 200 nM | CN(C)C(=O)[C@@H](NC(=O)c1cnccc1-c1ccc(C(F)(F)F)cc1)c1cc(C(F)(F)F)cc(C(F)(F)F)c1 |
| 700 nM | 300 nM | CN(C)C(=O)[C@@H](NC(=O)c1cc(-c2ccnn2C)ccc1-c1ccc(C(F)(F)F)cc1)c1cccc(C(F)(F)F)c1 |
| 3400 nM | 1600 nM | CN(C)C(=O)[C@@H](NC(=O)c1ccccc1-c1ccc(C(F)(F)F)cc1)c1cccc(N2CC(CC(F)(F)F)C2)c1 |
| 1400 nM | 400 nM | CN(C)C(=O)[C@@H](NC(=O)c1cnccc1-c1ccc(C(F)(F)F)cc1)c1cccc(C(F)(F)F)c1 |
| 1700 nM | 700 nM | CN(C)C(=O)[C@@H](NC(=O)c1cc(C(=O)NS(C)(=O)=O)ccc1-c1ccc(C(F)(F)F)cc1)c1cccc(C(F)(F)F)c1 |
| > 20000 nM | > 20000 nM | CC1(C)C[C@H](CO)N(C(=O)C(NC(=O)c2ccccc2-c2ccc(C(F)(F)F)cc2)c2cccc(C(F)(F)F)c2)C1 (stereo partly specified) |
| 5800 nM | 3300 nM | CN(C)C(=O)[C@@H](NC(=O)c1ccccc1-c1ccc(C(F)(F)F)cc1)c1ccc(Cl)cc1 |
| > 20000 nM | 10500 nM | O=C(NC(C(=O)N1CC[C@H](CO)C1)c1cccc(C(F)(F)F)c1)c1ccccc1-c1ccc(C(F)(F)F)cc1 (stereo partly specified) |
| > 20000 nM | 14500 nM | O=C(NC(C(=O)N1CCC[C@H]1CO)c1cccc(C(F)(F)F)c1)c1ccccc1-c1ccc(C(F)(F)F)cc1 (stereo partly specified) |
| 1100 nM | 500 nM | CN(C)C(=O)C(NC(=O)c1cc(-c2ccnn2C2COC2)ccc1-c1ccc(C(F)(F)F)cc1)c1cccc(C(F)(F)F)c1 (racemic) |
| 8200 nM | 3400 nM | O=C(NC(C(=O)N1CCC1)c1cccc(C(F)(F)F)c1)c1ccccc1-c1ccc(C(F)(F)F)cc1 (racemic) |
| > 20000 nM | > 20000 nM | CN(C)C(=O)C(NC(=O)c1cncnc1-c1ccc(C(F)(F)F)cc1)c1cccc(C(F)(F)F)c1 (racemic) |
| 5000 nM | 2200 nM | CN(C)C(=O)C(NC(=O)c1ccccc1-c1ccc(C(F)(F)F)cc1)c1cccc(C(F)(F)F)c1 (racemic) |
| > 20000 nM | > 20000 nM | CN(C)C(=O)[C@@H](NC(=O)c1ccccc1-c1ccc(C(F)(F)F)cc1)c1ccccc1 (racemic) |
